Experimental findings from the NIST ThermoML archive (doi:10.1016/j.tca.2006.06.018) are described below.

Numbers after ± are expanded uncertainties.

The conditions of data set [1]: DTA.
Data set [2] in a line: Molar enthalpy of transition or fusion. The note with it: DSC.

For `CC[N+](C)(C)CCO.F[B-](F)(F)F`, the Triple point temperature in data set [1] (Crystal 1) stood at 426.8 ± 2.1 K; in data set [1] (Crystal 2), 311.5 ± 0.5 K; in data set [1] (Crystal 3) it was 252.8 ± 0.5 K; in data set [1] (Metastable crystal) it was 146 ± 1 K. Also, the “Molar enthalpy of transition or fusion” value in data set [2] (Crystal 1) amounted to 5.14 ± 0.25 kJ/mol; in data set [2] (Crystal 2) it was 1.17 ± 0.16 kJ/mol; in data set [2] (Crystal 3), 3.06 ± 0.2 kJ/mol.

On to `CC[N+](C)(C)CCO.N#C[N-]C#N` [N-ethyl-2-hydroxyethyl-N,N-dimethylammonium dicyanamide], for which the Triple point temperature in data set [1] (Crystal 1) came out at 282.7 ± 2.1 K; in data set [1] (Metastable crystal) it was 168.4 ± 0.5 K. For the same compound, in data set [2] (Crystal 1), the “Molar enthalpy of transition or fusion” value was found to be 8.6 ± 0.33 kJ/mol.

Take `CCCCCCCCOCn1cc[n+](COCCCCCCCC)c1.O=S(=O)([N-]S(=O)(=O)C(F)(F)F)C(F)(F)F`: the Triple point temperature in data set [1] (Crystal 1) came out at 287.7 ± 2.1 K. Also, the “Molar enthalpy of transition or fusion” value in data set [2] (Crystal 1) is 34.2 ± 0.96 kJ/mol.

On to `CCCC[N+](C)(C)CCO.[Br-]` [N-(2-hydroxyethyl)-N,N-dimethylbutanaminium bromide], for which the Triple point temperature was found to be 359.3 ± 2.1 K in data set [1] (Crystal 1) and 187.3 ± 0.5 K in data set [1] (Metastable crystal). For the same compound, the “Molar enthalpy of transition or fusion” value in data set [2] (Crystal 1) was found to be 13.2 ± 0.44 kJ/mol.

For the compound `CCCCOCn1cc[n+](COCCCC)c1.F[B-](F)(F)F` [1,3-bis(butoxymethyl)-1H-imidazolium tetrafluoroborate], the Triple point temperature was 281.4 ± 2.1 K in data set [1] (Crystal 1) and 267.4 ± 0.5 K in data set [1] (Crystal 2). In addition, the “Molar enthalpy of transition or fusion” value in data set [2] (Crystal 1) stood at 8.54 ± 0.33 kJ/mol; in data set [2] (Crystal 2), 10.9 ± 0.38 kJ/mol.

On to `CC[N+](C)(C)CCO.F[P-](F)(F)(F)(F)F`, for which the Triple point temperature in data set [1] (Crystal 1) turned out to be 272 ± 2.1 K. The “Molar enthalpy of transition or fusion” value in data set [2] (Crystal 1) worked out at 10.6 ± 0.38 kJ/mol.

For `CCCCCCCCCCOn1cc[n+](OCCCCCCCCCC)c1C.O=S(=O)([N-]S(=O)(=O)C(F)(F)F)C(F)(F)F`, the Triple point temperature in data set [1] (Crystal 1) came to 303.1 ± 2.1 K. Moreover, in data set [2] (Crystal 1), the “Molar enthalpy of transition or fusion” value came out at 79.4 ± 2.1 kJ/mol.
